# Patent US9580428B2, “Compositions and methods for inhibiting viral polymerase” (priority 2012, dated 2017)
# “And” between values parts separate entries of the source, which are not always exact repeats. Equal values may be shown once. Where a name gives a salt, the structure may show the parent alone. Read-outs that look alike come from different tables or passages of the source. Marks after values point to notes of the source that are not given here.
# Assays:
# [1] = rat, in vivo, po; for AUC(0-inf) / Cmax / Tmax: male, Sprague-Dawley
# [2] = test system: Rhinovirus 2 HGP (HeLa Ohio-1 cells); assay: microbe, parasite or virus in culture; details: Enterovirus, HeLa Ohio1
# [3] = test system: Rhinovirus 2 HGP (HeLa Ohio-1 cells); details: human
# [4] = test system: Punta Toro A2 (Vero 76 cells); assay: microbe, parasite or virus in culture
# [5] = test system: Yellow Fever 17D (Vero 76 cells); assay: microbe, parasite or virus in culture
# [6] = test system: Influenza A H1N1 CA/04/2009 (Pandemic HIN1)
# [7] = test system: A/Vic/3/75 (H3N2); assay: microbe, parasite or virus in culture; type: cell-based; details: Influenza A virus
# [8] = test system: H3N2 virus (A/Victoria/3/75); parameters: species or system BALB/c mice; details: mouse, in vivo
# [9] = test system: Rhinovirus 2 HGP (HeLa Ohio-1 cells); assay: microbe, parasite or virus in culture; details: Enterovirus, HeLa Ohio1; remark: listed apart in the source
# [10] = test system: SARS-CoV Urbani (Vero 76 cells); details: African green monkey
# [11] = test system: Yellow Fever 17D (Vero 76 cells); assay: microbe, parasite or virus in culture; remark: listed apart in the source
# [12] = test system: Respiratory Syncytial A2 (MA-104 cells); assay: microbe, parasite or virus in culture; details: human respiratory syncytial virus, MA104
# [13] = test system: Influenza B Florida
# [14] = test system: Punta Toro A2 (Vero 76 cells); assay: microbe, parasite or virus in culture; remark: listed apart in the source
# [15] = test system: Influenza A H1N1 CA/04/2009 (Pandemic HIN1); remark: listed apart in the source
# [16] = in vitro; details: African green monkey
# [17] = test system: West Nile (Vero Cells); details: African green monkey
# [18] = test system: Adenovirus type 165089/Chicago (A-549 cells); details: human
# [19] = test system: Respiratory Syncytial A2 (MA-104 cells); assay: microbe, parasite or virus in culture; details: human respiratory syncytial virus, MA104; remark: listed apart in the source
# [20] = in vitro; details: African green monkey; remark: listed apart in the source
# [21] = test system: Yellow fever virus (Jimenez strain); type: in vivo, Syrian golden hamsters; details: 100 mg/kg
# [22] = test system: H3N2 virus (A/Victoria/3/75); parameters: species or system BALB/c mice; details: mouse, in vivo; remark: listed apart in the source
# [23] = test system: Adenovirus type 165089/Chicago (A-549 cells); details: human; remark: listed apart in the source
compound,measurement,setting,value
"CC(C)[C@H](N)C(=O)OC[C@H]1N[C@@H](c2c[nH]c3c(N)ncnc23)[C@H](O)[C@@H]1O [compound 30f, (S)-((2R,3R,4S,5S)-5-(4-amino-5H-pyrrolo[3,2-d]pyrimidin-7-yl)-3,4-dihydroxypyrrolidin-2-yl)methyl 2-amino-3-methylbutanoate Hydrochloride]",AUC(0-inf),[1]; 10 mg/kg,1076 ng·h
same,Cmax,[1]; 10 mg/kg,527 ng/mL
same,Tmax,[1]; 10 mg/kg,30 min
same,hydrolysis by plasma esterases to compound 12i,[1],rapidly hydrolyze
same,bioavailability relative to compound 12i,[1]; 10 mg/kg,approximately four-fold
"Cl.Cl.Nc1ncnc2c([C@@H]3N[C@H](CO)[C@@H](O)[C@H]3O)c[nH]c12 [compound 12i, (2S,3S,4R,5R)-2-(4-amino-5H-pyrrolo[3,2-d]pyrimidin-7-yl)-5-(hydroxymethyl)pyrrolidine-3,4-diol dihydrochloride]",EC50,[2],57 µg/mL
same,IC50 (50% cytotoxic dose),[3],>0.1 µg/mL
same,EC50,[4],> 250 µg/mL
same,EC50,[5],8.3 µg/mL
same,IC50 (50% cytotoxic dose),[6],0.21 µg/mL
same,EC50,[7],4 µg/mL
same,Mean day to death (Mean ± SEM),[8],>16 days
same,EC50,[9],56 µg/mL
same,IC50 (50% cytotoxic dose),[10],>0.1 µg/mL
same,EC50,[11],8.3 µg/mL
same,EC50,[12],> 100 µg/mL
same,EC50,[13],1.8 µg/mL
same,EC50,[14],310 µg/mL
same,IC50 (50% cytotoxic dose),[15],0.21 µg/mL
same,IC50,[16],> 100 µg/mL
same,IC50 (50% cytotoxic dose),[17],>0.1 µg/mL
same,IC50 (50% cytotoxic dose),[18],>0.1 µg/mL
same,EC50,[19],> 100 µg/mL
same,IC50,[20],> 100 µg/mL
same,AUC(0-inf),[1]; 10 mg/kg,219 ng·h
same,Cmax,[1]; 10 mg/kg,123 ng/mL
same,Tmax,[1]; 10 mg/kg,30 min
same,Survival rate,[21]; 21 days,100%
same,weight,"[21]; hamster, in vivo, ip",weight gain over placebo and ribavirin
same,Survival rate,"[21]; hamster, in vivo, ip, dihydrochloride",100% and 80%
same,Survival/Total,[22],10/10*
same,Mean day to death (Mean ± SEM),[22]; po,>16 days
same,Mean weight change (grams ± SEM) Day 9,[22]; po,0.01 + 0.27** grams
same,Survival/Total,[22]; po,10/10*
same,IC50 (50% cytotoxic dose),[23],>0.1 µg/mL
